From paper PMC3185947 (British Journal of Cancer, 2011)
Marks after values point to notes of the source that are not given here.

Test system: patients with previously treated advanced NSCLC
Test: Erlotinib-related toxicities (worst grade per patient), NCI CTC Version 2.0
Type: in vivo, human
[1] = erlotinib 175–200 mg (N=13), non-cutaneous dose limiting toxicity reported

C#Cc1cccc(Nc2ncnc3cc(OCCOC)c(OCCOC)cc23)c1 [erlotinib]
9 (69) n (%): Diarrhea, grade Any (erlotinib 175–200 mg (N=13))
36%: Vomiting, frequency (all 42 patients)
6 (33) n (%): Anorexia, grade Any (erlotinib 225–275 mg (N=18))
15 (36) n (%): Vomiting, grade Any (Total (N=42))
14 (33) n (%): Stomatitis, grade Any (Total (N=42))
40%: Fatigue, frequency (all 42 patients)
1 (25) n (%): Skin fissures, grade Any (erlotinib 100–150 mg (N=4))
33%: Stomatitis, frequency (all 42 patients)
17 (40) n (%): Fatigue, grade Any (Total (N=42))
22 (52) n (%): Nausea, grade Any (Total (N=42))
11 (26) n (%): Anorexia, grade Any (Total (N=42))
1 (8) ^a n (%): Creatinine, grade 3–4 [1] | Fatigue, grade 3–4 [1]
79%: Diarrhea, frequency (all 42 patients)
2 (50) n (%): Anorexia, grade Any (erlotinib 100–150 mg (N=4)) | Stomatitis, grade Any (erlotinib 100–150 mg (N=4)) | Vomiting, grade Any (erlotinib 100–150 mg (N=4))
1 (2) n (%): Anorexia, grade 3–4 (Total (N=42)) | Creatinine, grade 3–4 (Total (N=42)) | Creatinine, grade Any (Total (N=42)) | Diarrhea, grade 3–4 (Total (N=42)) | Headache, grade 3–4 (Total (N=42)) | Headache, grade Any (Total (N=42)) | Paronychia, grade 3–4 (Total (N=42)) | Skin fissures, grade 3–4 (Total (N=42))
6 (14) n (%): Alopecia, grade Any (Total (N=42))
1 (8) n (%): Creatinine, grade Any (erlotinib 175–200 mg (N=13))
3 (7) n (%): Fatigue, grade 3–4 (Total (N=42))
33 (79) n (%): Diarrhea, grade Any (Total (N=42))
0 (0) n (%): Alopecia, grade 3–4 (Total (N=42)) | Epistaxis, grade 3–4 (Total (N=42)) | Nausea, grade 3–4 (Total (N=42)) | Stomatitis, grade 3–4 (Total (N=42)) | Vomiting, grade 3–4 (Total (N=42)) | Alopecia, grade 3–4 (erlotinib 100–150 mg (N=4)) | Alopecia, grade Any (erlotinib 100–150 mg (N=4)) | Anorexia, grade 3–4 (erlotinib 100–150 mg (N=4)) | Creatinine, grade 3–4 (erlotinib 100–150 mg (N=4)) | Creatinine, grade Any (erlotinib 100–150 mg (N=4)) | Diarrhea, grade 3–4 (erlotinib 100–150 mg (N=4)) | Epistaxis, grade 3–4 (erlotinib 100–150 mg (N=4)) | Epistaxis, grade Any (erlotinib 100–150 mg (N=4)) | Fatigue, grade 3–4 (erlotinib 100–150 mg (N=4)) | Headache, grade 3–4 (erlotinib 100–150 mg (N=4)) | Headache, grade Any (erlotinib 100–150 mg (N=4)) | Nausea, grade 3–4 (erlotinib 100–150 mg (N=4)) | Paronychia, grade 3–4 (erlotinib 100–150 mg (N=4)) | Paronychia, grade Any (erlotinib 100–150 mg (N=4)) | Skin fissures, grade 3–4 (erlotinib 100–150 mg (N=4)) | Stomatitis, grade 3–4 (erlotinib 100–150 mg (N=4)) | Vomiting, grade 3–4 (erlotinib 100–150 mg (N=4)) | Alopecia, grade 3–4 (erlotinib 175–200 mg (N=13)) | Alopecia, grade Any (erlotinib 175–200 mg (N=13)) | Anorexia, grade 3–4 (erlotinib 175–200 mg (N=13)) | Anorexia, grade Any (erlotinib 175–200 mg (N=13)) | Diarrhea, grade 3–4 (erlotinib 175–200 mg (N=13)) | Epistaxis, grade 3–4 (erlotinib 175–200 mg (N=13)) | Epistaxis, grade Any (erlotinib 175–200 mg (N=13)) | Headache, grade 3–4 (erlotinib 175–200 mg (N=13)) | Headache, grade Any (erlotinib 175–200 mg (N=13)) | Nausea, grade 3–4 (erlotinib 175–200 mg (N=13)) | Paronychia, grade 3–4 (erlotinib 175–200 mg (N=13)) | Paronychia, grade Any (erlotinib 175–200 mg (N=13)) | Skin fissures, grade 3–4 (erlotinib 175–200 mg (N=13)) | Skin fissures, grade Any (erlotinib 175–200 mg (N=13)) | Stomatitis, grade 3–4 (erlotinib 175–200 mg (N=13)) | Vomiting, grade 3–4 (erlotinib 175–200 mg (N=13)) | Alopecia, grade 3–4 (erlotinib 225–275 mg (N=18)) | Creatinine, grade 3–4 (erlotinib 225–275 mg (N=18))
4 (22) n (%): Alopecia, grade Any (erlotinib 225–275 mg (N=18))
4 (100) n (%): Diarrhea, grade Any (erlotinib 100–150 mg (N=4))
5 (38) n (%): Nausea, grade Any (erlotinib 175–200 mg (N=13)) | Stomatitis, grade Any (erlotinib 175–200 mg (N=13)) | Vomiting, grade Any (erlotinib 175–200 mg (N=13))
5 (12) n (%): Epistaxis, grade Any (Total (N=42)) | Paronychia, grade Any (Total (N=42)) | Skin fissures, grade Any (Total (N=42))
52 % of patients: Nausea, frequency (all 42 patients)
4 (31) n (%): Fatigue, grade Any (erlotinib 175–200 mg (N=13))
3 (75) n (%): Fatigue, grade Any (erlotinib 100–150 mg (N=4)) | Nausea, grade Any (erlotinib 100–150 mg (N=4))
